ChEMBL document CHEMBL1201862, “PubChem BioAssay data set” (2004)
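Growth conditions: 96-well plates. Treatment: test compound, 48 hours, 5 concentrations. Analysis: linear interpolation between bracketing concentrations; unreached endpoints set to highest concentration. Here, GI50 denotes the concentration required for 50% inhibition of growth.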 Active and inactive are the calls of the source. Cut-off read from the data, not from the text of the source: active = GI50 up to about 1.1 µM and inactive = higher.

What was measured:
Experiment in all cases: NCI-60 cell line screen, 48 h
[1] = system: BT-549
[2] = system: CAKI-1
[3] = system: Hs-578T
[4] = system: MOLT-4
[5] = system: SK-MEL-28
[6] = system: NCI-H460
[7] = system: SF-268
[8] = system: K562
[9] = system: SK-MEL-2
[10] = system: 786-0
[11] = system: NCI-H226
[12] = system: MDA-MB-435
[13] = system: UO-31
[14] = system: SR
[15] = system: RXF 393
[16] = system: SW-620
[17] = system: COLO 205
[18] = system: U-251
[19] = system: ACHN
[20] = system: T47D
[21] = system: OVCAR-4
[22] = system: HCT-15
[23] = system: HCC 2998
[24] = system: SF-539
[25] = system: HOP-92
[26] = system: LOX IMVI
[27] = system: A498
[28] = system: NCI/ADR-RES
[29] = system: MCF7
[30] = system: OVCAR-3
[31] = system: NCI-H23
[32] = system: SK-OV-3
[33] = system: HCT-116
[34] = system: MDA-N
[35] = system: SNB-75
[36] = system: HT-29
[37] = system: UACC-62
[38] = system: DU-145
[39] = system: KM12
[40] = system: HL-60
[41] = system: RPMI-8226
[42] = system: PC-3
[43] = system: SN12C
[44] = system: CCRF-CEM
[45] = system: SF-295
[46] = system: OVCAR-5
[47] = system: OVCAR-8
[48] = system: MDA-MB-231
[49] = system: M14
[50] = system: UACC-257
[51] = system: SK-MEL-5
[52] = system: SNB-19
[53] = system: A549
[54] = system: NCI-H522
[55] = system: IGROV-1
[56] = system: TK-10
[57] = system: HOP-62
[58] = system: EKVX
[59] = system: Malme-3M

With `COC(=O)C(=O)C(C(=O)C(=O)Nc1ccccc1C(N)=O)c1nc2ccc(Cl)cc2nc1O` (centres undefined) the GI50 [1] was > 100 µM (inactive), the GI50 [2] was 82.8 µM (inactive) and the GI50 [3] was 46.5 µM (inactive). For the same compound, the GI50 [4] was > 100 µM (inactive), the GI50 [5] was > 100 µM (inactive) and the GI50 [6] was > 100 µM (inactive). For the same compound, the GI50 [7] was > 100 µM (inactive), the GI50 [8] was > 100 µM (inactive) and the GI50 [9] was > 100 µM (inactive). For the same compound, the GI50 [10] was > 100 µM (inactive), the GI50 [11] was > 100 µM (inactive) and the GI50 [12] was > 100 µM (inactive). The GI50 [13] was > 100 µM (inactive), the GI50 [14] was > 100 µM (inactive) and the GI50 [15] was > 100 µM (inactive). The GI50 [16] was > 100 µM (inactive), the GI50 [17] was > 100 µM (inactive) and the GI50 [18] was > 100 µM (inactive). The GI50 [19] was > 100 µM (inactive), the GI50 [20] was > 100 µM (inactive) and the GI50 [21] was > 100 µM (inactive). For the same compound, the GI50 [22] was > 100 µM, the GI50 [23] was > 100 µM (inactive) and the GI50 [24] was > 100 µM (inactive). For the same compound, the GI50 [25] was > 100 µM (inactive), the GI50 [26] was > 100 µM (inactive) and the GI50 [27] was > 100 µM (inactive). For the same compound, the GI50 [28] was > 100 µM (inactive), the GI50 [29] was > 100 µM (inactive) and the GI50 [30] was > 100 µM (inactive). The GI50 [31] was > 100 µM (inactive), the GI50 [32] was > 100 µM (inactive) and the GI50 [33] was > 100 µM (inactive). The GI50 [34] was > 100 µM (inactive), the GI50 [35] was 33.7 µM (inactive) and the GI50 [36] was > 100 µM (inactive). The GI50 [37] was > 100 µM (inactive), the GI50 [38] was > 100 µM (inactive) and the GI50 [39] was > 100 µM (inactive). The GI50 [40] was > 100 µM (inactive), the GI50 [41] was > 100 µM (inactive) and the GI50 [42] was > 100 µM (inactive). The GI50 [43] was > 100 µM (inactive), the GI50 [44] was > 100000 nM (inactive) and the GI50 [45] was > 100 µM (inactive). The GI50 [46] was > 100 µM (inactive), the GI50 [47] was > 100 µM (inactive) and the GI50 [48] was > 100 µM (inactive). For the same compound, the GI50 [49] was > 100 µM (inactive), the GI50 [50] was > 100 µM (inactive) and the GI50 [51] was > 100 µM (inactive). For the same compound, the GI50 [52] was > 100 µM (inactive) and the GI50 [53] was > 100 µM (inactive).

`O=c1[nH]/c(=C/c2ccc(OCc3ccccc3)cn2)c(=O)[nH]/c1=C/c1ccccc1` was tested, and the GI50 [1] was 0.787 µM (active), the GI50 [2] was 0.194 µM (active) and the GI50 [3] was 0.185 µM (active). The GI50 [4] was 0.327 µM (active), the GI50 [5] was > 100 µM (inactive) and the GI50 [6] was 0.132 µM (active). The GI50 [7] was 0.206 µM (active), the GI50 [8] was 0.141 µM (active) and the GI50 [10] was 0.128 µM (active). For the same compound, the GI50 [54] was 0.0942 µM (active), the GI50 [12] was 0.0434 µM (active) and the GI50 [14] was 0.289 µM (active). The GI50 [15] was 0.0951 µM (active), the GI50 [16] was 0.158 µM (active) and the GI50 [17] was 1.06 µM (active). The GI50 [18] was 0.119 µM (active), the GI50 [19] was 0.296 µM (active) and the GI50 [20] was > 24.7 µM (inactive). The GI50 [21] was 0.465 µM (active), the GI50 [22] was 0.135 µM and the GI50 [23] was 0.175 µM (active). The GI50 [24] was 0.12 µM (active), the GI50 [25] was 14.3 µM (inactive) and the GI50 [55] was 0.207 µM (active). For the same compound, the GI50 [26] was 0.207 µM (active), the GI50 [27] was 0.743 µM (active) and the GI50 [28] was 0.0794 µM (active). For the same compound, the GI50 [29] was 0.425 µM (active), the GI50 [30] was 0.114 µM (active) and the GI50 [31] was 0.107 µM (active). The GI50 [32] was 0.531 µM (active), the GI50 [33] was 0.146 µM (active) and the GI50 [34] was 0.0402 µM (active). For the same compound, the GI50 [35] was 0.0643 µM (active), the GI50 [36] was 0.12 µM (active) and the GI50 [37] was 0.191 µM (active). The GI50 [38] was 0.128 µM (active), the GI50 [39] was 0.118 µM (active) and the GI50 [40] was 0.091 µM (active). The GI50 [41] was 0.123 µM (active), the GI50 [42] was 0.141 µM (active) and the GI50 [56] was 0.164 µM (active). The GI50 [43] was 0.113 µM (active), the GI50 [44] was 126 nM (active) and the GI50 [57] was 0.239 µM (active). For the same compound, the GI50 [45] was 0.107 µM (active), the GI50 [46] was 1.07 µM (active) and the GI50 [47] was 0.189 µM (active). For the same compound, the GI50 [48] was 0.59 µM (active), the GI50 [49] was 0.129 µM (active) and the GI50 [58] was 0.138 µM (active). The GI50 [51] was 0.106 µM (active), the GI50 [52] was 0.157 µM (active) and the GI50 [53] was 0.594 µM (active).

For `CC12CCC(C1)C(C)(C)C2OC(=O)c1ccccc1N` (centres undefined), the GI50 [1] was 19.1 µM (inactive), the GI50 [2] was 15.2 µM (inactive) and the GI50 [3] was 15.6 µM (inactive). For the same compound, the GI50 [4] was 6 µM (inactive), the GI50 [5] was 16.7 µM (inactive) and the GI50 [6] was 15.7 µM (inactive). For the same compound, the GI50 [7] was 16.8 µM (inactive), the GI50 [8] was 14.9 µM (inactive) and the GI50 [59] was 13.4 µM (inactive). For the same compound, the GI50 [9] was 14.8 µM (inactive), the GI50 [10] was 16.6 µM (inactive) and the GI50 [54] was 10.1 µM (inactive). For the same compound, the GI50 [12] was 16.7 µM (inactive), the GI50 [13] was 17 µM (inactive) and the GI50 [14] was 8.24 µM (inactive). For the same compound, the GI50 [15] was 12.2 µM (inactive), the GI50 [16] was 15.5 µM (inactive) and the GI50 [17] was 15.4 µM (inactive). For the same compound, the GI50 [18] was 17.6 µM (inactive), the GI50 [19] was 17.5 µM (inactive) and the GI50 [20] was 14.9 µM (inactive). The GI50 [22] was 15.9 µM, the GI50 [23] was 13.3 µM (inactive) and the GI50 [24] was 18.6 µM (inactive). The GI50 [25] was 11.8 µM (inactive), the GI50 [55] was 25.8 µM (inactive) and the GI50 [26] was 18.2 µM (inactive). For the same compound, the GI50 [27] was 15.2 µM (inactive), the GI50 [28] was 16.6 µM (inactive) and the GI50 [29] was 16.5 µM (inactive). For the same compound, the GI50 [30] was 15.2 µM (inactive), the GI50 [31] was 15.7 µM (inactive) and the GI50 [32] was 16.7 µM (inactive). For the same compound, the GI50 [33] was 13.5 µM (inactive), the GI50 [34] was 15.5 µM (inactive) and the GI50 [35] was 20.5 µM (inactive). For the same compound, the GI50 [36] was 14.9 µM (inactive), the GI50 [37] was 15.5 µM (inactive) and the GI50 [38] was 16.4 µM (inactive). The GI50 [39] was 16.3 µM (inactive), the GI50 [40] was 12.9 µM (inactive) and the GI50 [41] was 2.9 µM (inactive). The GI50 [42] was 14.3 µM (inactive), the GI50 [56] was 16.9 µM (inactive) and the GI50 [43] was 17.6 µM (inactive). For the same compound, the GI50 [44] was 678 nM (active), the GI50 [57] was 16.9 µM (inactive) and the GI50 [45] was 17.3 µM (inactive). For the same compound, the GI50 [46] was 18.2 µM (inactive), the GI50 [47] was 18.5 µM (inactive) and the GI50 [48] was 15.9 µM (inactive). The GI50 [49] was 16.6 µM (inactive), the GI50 [50] was 15.4 µM (inactive) and the GI50 [58] was 15.6 µM (inactive). The GI50 [51] was 17 µM (inactive), the GI50 [52] was 17.2 µM (inactive) and the GI50 [53] was 14.8 µM (inactive).
